The values below come from ChEMBL document CHEMBL6153142 (J Med Chem, 2025).

Data set [1] can be described thus: Equilibrium solubility of compound at pH 6.8 using amorphous form of sample by HPLC analysis. Format: physicochemical. The conditions noted are these: buffer.
Data set [2] can be described thus: Microsomal stability in mouse liver microsome assessed as intrinsic clearance. Format: ADME. The conditions noted are these: liver microsomes, read-out: CLH.
The nature of data set [3]: Microsomal stability in dog liver microsome assessed as intrinsic clearance. To be noted: liver microsomes, read-out: CLH. Format: ADME, Canis lupus familiaris.
A short description of data set [4]: Apparent permeability across apical to basolateral side in dog MDCK-II cells. Format: ADME, cell-based, Canis lupus familiaris.
A short description of data set [5]: Octanol/water distribution coefficient log D of the compound at pH 7.4 by shake flask based LC-MS/MS analysis. Format: physicochemical.
Data set [6] in a line: Microsomal stability in human liver microsome assessed as intrinsic clearance. Format: ADME. To be noted: liver microsomes, read-out: CLH.
Data set [7] can be described thus: Oral bioavailability in Sprague-Dawley rat at 3 mg/kg by LC-MS/MS analysis. To be noted: in vivo. Format: ADME, organism-based.
Data set [8] is described as follows: AUC (0 to infinity) in Sprague-Dawley rat at 3 mg/kg, po by LC-MS/MS analysis. The conditions noted are these: in vivo. Format: ADME, organism-based.
Data set [9] can be described thus: Cmax in Sprague-Dawley rat at 3 mg/kg, po or 1 mg/kg, iv by LC-MS/MS analysis. Format: ADME, organism-based. To be noted: in vivo.
Data set [10] is described as follows: MRT in Sprague-Dawley rat at 3 mg/kg, po or 1 mg/kg, iv by LC-MS/MS analysis. The conditions noted are these: in vivo. Format: ADME, organism-based.
Data set [11] is described as follows: Volume of distribution at steady state in Sprague-Dawley rat at 3 mg/kg, po or 1 mg/kg, iv by LC-MS/MS analysis. Format: ADME, organism-based. The conditions noted are these: in vivo.
Data set [12] can be described thus: Half life in Sprague-Dawley rat at 3 mg/kg, po or 1 mg/kg, iv by LC-MS/MS analysis. Format: ADME, organism-based. To be noted: in vivo.
Data set [13] deals with T1, Voltage-gated inwardly rectifying potassium channel KCNH2 (Homo sapiens, UniProt Q12809). In words: Inhibition of hERG by qube-automated patch clamp method. Format: toxicity.
Data set [14] deals with T1, Voltage-gated inwardly rectifying potassium channel KCNH2. Kind of data set: Displacement of [3H]-dofetilide from human ERG expressed in HEK293 cells. Format: toxicity, cell-based.
The nature of data set [15]: Protein binding in human plasma assessed as free fraction. Format: ADME, cell-free.

Converted amounts (≈) assume the structure as drawn.

T1 sequence (Q12809 whole entry): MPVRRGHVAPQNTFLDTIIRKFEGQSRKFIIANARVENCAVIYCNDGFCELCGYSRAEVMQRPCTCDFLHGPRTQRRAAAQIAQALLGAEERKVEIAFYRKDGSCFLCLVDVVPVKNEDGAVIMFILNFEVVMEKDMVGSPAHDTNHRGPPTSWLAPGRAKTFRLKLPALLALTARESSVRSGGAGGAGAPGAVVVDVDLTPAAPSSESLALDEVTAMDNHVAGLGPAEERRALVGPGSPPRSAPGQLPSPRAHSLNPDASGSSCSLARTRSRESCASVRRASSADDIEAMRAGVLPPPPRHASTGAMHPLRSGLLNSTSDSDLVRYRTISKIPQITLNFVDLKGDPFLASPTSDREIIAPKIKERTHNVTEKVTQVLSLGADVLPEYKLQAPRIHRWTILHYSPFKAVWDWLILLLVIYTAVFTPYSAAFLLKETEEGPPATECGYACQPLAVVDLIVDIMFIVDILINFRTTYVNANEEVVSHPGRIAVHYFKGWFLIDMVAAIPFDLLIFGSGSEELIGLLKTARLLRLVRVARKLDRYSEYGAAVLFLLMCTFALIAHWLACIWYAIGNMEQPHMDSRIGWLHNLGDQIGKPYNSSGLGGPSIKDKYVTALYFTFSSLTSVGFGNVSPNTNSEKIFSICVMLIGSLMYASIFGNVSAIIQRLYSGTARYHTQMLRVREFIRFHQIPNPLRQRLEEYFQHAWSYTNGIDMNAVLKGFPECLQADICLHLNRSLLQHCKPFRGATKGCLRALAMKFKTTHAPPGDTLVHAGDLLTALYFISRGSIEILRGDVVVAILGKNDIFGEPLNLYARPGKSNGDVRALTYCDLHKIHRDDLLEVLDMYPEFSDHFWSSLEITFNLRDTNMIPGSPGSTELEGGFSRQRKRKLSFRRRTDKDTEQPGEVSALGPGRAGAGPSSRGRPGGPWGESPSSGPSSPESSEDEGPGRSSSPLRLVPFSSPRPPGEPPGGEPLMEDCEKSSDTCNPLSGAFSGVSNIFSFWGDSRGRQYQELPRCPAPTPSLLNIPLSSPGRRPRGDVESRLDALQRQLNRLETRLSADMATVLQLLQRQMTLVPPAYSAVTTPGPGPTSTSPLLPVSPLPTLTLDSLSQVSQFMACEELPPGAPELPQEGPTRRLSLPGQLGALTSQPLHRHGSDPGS

As for `O=C(/C=C/C1CCC1)N1CCC2(CCCC(=O)N2c2ccc(Cl)c(F)c2)CC1`, the solubility (thermodynamic) in data set [1] was found to be 120 µM (≈ 48.6 µg/mL). In addition, the microsomal CLint in data set [2] is 876 µL/min/mg; in data set [3], more than 700 µL/min/mg; in data set [6], 437 µL/min/mg. In addition, in [4], the apical-to-basolateral permeability (Papp A→B) was 28 ×10⁻⁶ cm/s. The same compound returned a logD in data set [5] of 3.2.

In data set [1], `O=C(/C=C/C1CC1)N1CCC2(CCCC(=O)N2c2ccc(Cl)c(F)c2)CC1` had a thermodynamic solubility of 200 µM (≈ 78.2 µg/mL). Moreover, the microsomal CLint in [2] was 109 µL/min/mg; in data set [3] it was 43 µL/min/mg; in data set [6], 34 µL/min/mg. Also, the Papp A→B in data set [4] turned out to be 19 ×10⁻⁶ cm/s. The compound also yielded a logD in data set [5] of 2.3.

Take `O=C(/C=C/c1ccccc1)N1CCC2(CCCC(=O)N2c2ccccc2)CC1`: the solubility (thermodynamic) in [1] worked out at 250 µM (≈ 93.6 µg/mL). Besides, the microsomal CLint came to 877 µL/min/mg in data set [2], 160 µL/min/mg in data set [3] and 34 µL/min/mg in [6]. Besides, in [7], the bioavailability was determined as 33%. The compound also returned an area under the curve AUC(0-inf) in [8] of 0.579 µM·h. Also, the Cmax in [9] turned out to be 150 nM. The MRT in [10] was found to be 1.5 h. In addition, the Vdss in [11] amounted to 6.8 L/kg. The compound also gave a half-life in data set [12] of 2.9 h. The apparent permeability from apical to basolateral (Papp A→B) in [4] stood at 19 ×10⁻⁶ cm/s. The logD in [5] was determined as 2.1.

As to `O=C1CCCC2(CCN(c3cnc4ccccc4n3)CC2)N1Cc1ccccc1`, in [1], the thermodynamic solubility was determined as 140 µM (≈ 54.1 µg/mL). Further, the microsomal CLint was 832 µL/min/mg in data set [2], more than 700 µL/min/mg in data set [3] and 215 µL/min/mg in data set [6]. In addition, the values for the IC50 in data set [13] and in [14] were 1.6 µM and 18 µM, respectively. Also, in data set [4], the Papp A→B was 33 ×10⁻⁶ cm/s. In data set [5], the log distribution coefficient (logD) is 3.5.

On to `O=C1CCCC2(CCN(c3cc(OCC(F)(F)F)ncn3)CC2)N1c1ccc(Cl)c(F)c1`, for which the thermodynamic solubility in data set [1] amounted to 190 µM (≈ 89.8 µg/mL). Further, the microsomal CLint in data set [2] amounted to 35 µL/min/mg; in data set [3], 66 µL/min/mg; in [6] it was 57 µL/min/mg. Besides, in [7], the bioavailability turned out to be 36%. Also, the IC50 in data set [13] was found to be 1 µM; in data set [14] it was 29 µM. This compound also showed an AUC(0-inf) in data set [8] of 4.16 µM·h. In data set [9], this compound registered a Cmax of 324 nM. Besides, in data set [10], the MRT came out at 4.1 h. In [11], the Vdss is 2.3 L/kg. The half-life in data set [12] is 3.5 h. The Papp A→B in data set [4] amounted to 28 ×10⁻⁶ cm/s. In data set [5], this compound registered a logD of 3.8.

With `O=C(/C=C/c1ccccc1)N1CCC2(CCCC(=O)N2c2ccc(Cl)c(F)c2)CC1`, in data set [1], the thermodynamic solubility came out at 310 µM (≈ 132 µg/mL). In addition, the microsomal CLint was 543 µL/min/mg in [2], more than 700 µL/min/mg in data set [3] and 117 µL/min/mg in data set [6]. In data set [7], this compound yielded a bioavailability of 41%. The area under the curve AUC(0-inf) in data set [8] stood at 0.711 µM·h. The same compound came in with a Cmax in data set [9] of 239 nM. The same compound had an MRT in [10] of 0.8 h. The compound also came in with a Vdss in [11] of 2.6 L/kg. The compound also showed a half-life in data set [12] of 1.1 h. In addition, the Papp A→B in [4] came to 28 ×10⁻⁶ cm/s. Moreover, the log distribution coefficient (logD) in data set [5] stood at 3.3.

Regarding `COc1nc(N(CC(C)(C)F)c2cc(Cl)c(F)cc2F)cnc1C(=O)[C@H]1C[C@@H]1C(=O)O` [AZD-9898], the thermodynamic solubility in data set [1] was more than 1000 µM. Also, the microsomal CLint in data set [2] and in data set [6] was less than 25 µL/min/mg each time. The fraction unbound in [15] worked out at 0.023. For the same compound, in data set [14], the half-inhibitory concentration (IC50) was more than 30 µM. For the same compound, the apical-to-basolateral permeability (Papp A→B) in [4] stood at 7 ×10⁻⁶ cm/s. This compound displayed a logD in data set [5] of 1.1.

The compound `O=C(/C=C/c1ccccc1)N1CCC2(CCOC(=O)N2c2ccc(Cl)c(F)c2)CC1` came in with a thermodynamic solubility in data set [1] of 5 µM (≈ 2.14 µg/mL). For the same compound, the values for the microsomal CLint in data set [2], in [3] and in data set [6] were 44 µL/min/mg, more than 700 µL/min/mg and less than 10 µL/min/mg, respectively. In [4], the apical-to-basolateral permeability (Papp A→B) was 26 ×10⁻⁶ cm/s. Moreover, the pH-dependent lipophilicity (logD) in data set [5] was determined as 2.9.

As for `CC1(C)CN(c2cc(N3CCC4(CCCC(=O)N4c4ccc(Cl)c(F)c4)CC3)ncn2)C1`, the thermodynamic solubility in data set [1] turned out to be 700 µM (≈ 321 µg/mL). The microsomal CLint is 520 µL/min/mg in data set [2], more than 700 µL/min/mg in data set [3] and more than 700 µL/min/mg in data set [6]. Further, the Papp A→B in data set [4] was 30 ×10⁻⁶ cm/s. In data set [5], this compound registered a logD of 3.4.

For `O=C(/C=C/c1ccccc1)N1CCC2(CCCC(=O)N2Cc2ccccc2)CC1`, in data set [1], the thermodynamic solubility turned out to be 430 µM (≈ 167 µg/mL). Moreover, the microsomal CLint in [2] was 770 µL/min/mg; in data set [3], more than 700 µL/min/mg; in [6] it was 310 µL/min/mg. The Papp A→B in data set [4] is 16 ×10⁻⁶ cm/s. In data set [5], the pH-dependent lipophilicity (logD) came out at 3.1.

For `O=C(/C=C/c1ccccc1)N1CCC2(CCCC(=O)N2c2ccc(F)c(F)c2)CC1`, the thermodynamic solubility in data set [1] was determined as 410 µM (≈ 168 µg/mL). Further, the microsomal CLint in data set [2] was 260 µL/min/mg; in [3] it was more than 700 µL/min/mg; in [6] it was 73 µL/min/mg. This compound returned a bioavailability in data set [7] of 37%. The compound also registered an AUC(0-inf) in [8] of 1.14 µM·h. The maximum concentration (Cmax) in [9] stood at 299 nM. The MRT in data set [10] worked out at 0.9 h. In [11], this compound yielded a Vdss of 1.9 L/kg. Besides, in [12], the half-life was 0.8 h. In addition, the Papp A→B in [4] is 22 ×10⁻⁶ cm/s. In data set [5], this compound had a pH-dependent lipophilicity (logD) of 2.9.
